What was measured:
[1] = dechlorination in platinum-catalyzed hydrogenation, semi-continuous reactor; conditions: for Dechlor: ppm based on weight of product amine
Procedure: The autoclave was sealed, the air was displaced with nitrogen and the autoclave was pressure tested. The nitrogen was replaced with hydrogen and the contents of the autoclave were heated to 80° C. The agitation was started and the contents of the autoclave were heated to 100° C. The pressure control regulator on the hydrogen feed was set at 540 psig and this pressure maintained in the autoclave throughout the reduction. The addition of 510 g of 3,4-dichloro-1-nitrobenzene crude (containing 11% 2,3- and 1% 2,5- isomers) was started. During the simultaneous feeding of the hydrogen and the nitroaromatic, the temperature was allowed to rise to 135° C. where it was controlled by the automated cooling water system. The addition of the nitroaromatic was completed in about 120 minutes. […] Heating at reaction conditions was continued for an additional 15 minutes. The autoclave was cooled, the hydrogen was displaced with nitrogen and the organic phase was separated.

[2] = storage stabilization of molten 3,4-dichloroaniline at 110° C.; conditions: 0.43 wt. % additive
Procedure: Round bottom drying ampuls of 20 ml capacity were dried by heating and were then cooled under nitrogen. Ten ml of test samples consisting of molten 3,4-dichloroaniline containing candidate stabilizers were pipetted into the ampuls which were sealed under nitrogen and stored in a 110° C. oven. Periodically an ampul of each sample was removed from the oven and evaluated.

[3] = per literature data; cited from earlier work
[4] = dehalogenation inhibitor evaluation in laboratory batch hydrogenation
Procedure: The autoclave was sealed, the air was displaced with nitrogen and the autoclave was pressure tested. The nitrogen was replaced with hydrogen and the contents of the autoclave were heated to 75° C. The agitation was started and the pressure control regulator on the hydrogen feed was set to a maximum of 500 psig. […] The reduction was terminated. The autoclave was cooled, the hydrogen was displaced with nitrogen and the organic phase was separated.
Hydrogenation temperature was controlled at 110° C. instead of 96° C.

[5] = 2.0 mole % inhibitor based on nitroaromatic
[6] = 2.1 mole % inhibitor based on nitroaromatic

CC(O)CN (stereo not shown) [1-amino-2-propanol]
Dechlor ([1]; 1.5 mole % inhibitor based on nitroaromatic): 470 ppm

COCCN [2-methoxyethylamine]
Color ([2]; 7 days): Lt yellow | High Boilers ([2]; 7 days): 0.05 Weight % | Color ([2]; 60 days): Yellow | High Boilers ([2]; 60 days): 0.07 Weight % | Dechlor [1, 5]: 282 ppm | pKb [3]: 4.6 | dechlorinated derivatives in product amine ([4]; Example 10, 1.0 weight % inhibitor, otherwise as Example 8): 0.05% | dehalogenation inhibition ([4]; batch, similar conditions (96° C.)): good dehalogenation inhibitor being approximately equivalent to morpholine

OCCNCCO [diethanolamine]
Dechlor [1, 6]: 344 ppm | pKb [3]: 5.0

C1COCCN1 [morpholine, reference compound]
Dechlor [1, 6]: 548 ppm

NCCCO [3-amino-1-propanol]
Dechlor [1, 5]: 423 ppm | pKb [3]: 4.1

COCCCN [3-methoxy-1-propylamine]
Dechlor ([1]; 2.5 mole % inhibitor based on nitroaromatic): 438 ppm

NCCO [ethanolamine]
dechlorination (total of aniline and monochloroanilines in the product calculated as p-chloroaniline) ([1]; Example 1, 0.4 weight % and 1.2 mole % inhibitor based on nitroaromatic, 135° C., 540 psig): less than 235 ppm | dechlorination (total of aniline and monochloroanilines calculated as p-chloroaniline) ([4]; Example 8, 0.5 weight % inhibitor, 96° C., 7.9 mg platinum, terminated at 188 minutes): 0.03% | dechlorinated derivatives in product amine ([4]; Example 9, 0.375 weight % inhibitor, 110° C., 15.8 mg platinum): 0.003% | dehalogenation ([4]; batch, 96° C., concentrations near optimum for semicontinuous unit): very low
